| Compound | logP |
| --- | --- |
| CNC12CCC(CN)CC1Cc1ccccc12 (stereo not given) | 1.84 |
| CNC12CCCCC1Cc1ccc(OC)cc12 (stereo not given) | 3.54 |
| CNC12CCCCC1c1ccccc1C2 (stereo not given) | 3.43 |
| CCNC12c3ccccc3CC1CCCC2C (stereo not given) | 3.8 |
| NC12CCCC1Cc1ccccc12 (stereo not given) | 2.58 |
| CNC12CC=CCC1c1ccccc1C2 (stereo not given) | 3.28 |
| CNC12CCC(CO)CC1Cc1ccccc12 (stereo not given) | 1.41 |
| CNCC1CCC2(NC)c3ccccc3CC2C1 (stereo not given) | 2.48 |
| C=C1c2ccccc2C2(NC)CCCCC12 (stereo not given) | 3.79 |
| CNC12c3ccccc3CC1CCCC2C (stereo not given) | 3.44 |
| NC12CCCCC1c1ccccc1C2 (stereo not given) | 2.94 |
| CNC12CCCCC1Cc1ccccc12 (stereo not given) | 3.37 |
| CNC12CCCCC1Cc1cc(OC)ccc12 (stereo not given) | 3.51 |
| CNC12CCCCCC1Cc1ccccc12 (stereo not given) | 3.77 |
| NC12CCC(CO)CC1Cc1ccccc12 (stereo not given) | 0.93 |
